From patent EP1142584A1, “COMPOSITIONS FOR TREATING FREQUENT URINATION AND URINARY INCONTINENCE” (Takeda Chemical Industries, Ltd., priority 1999, dated 2000)
Counter-ions that a name gives are not always drawn. Marks after values point to notes of the source that are not given here.

Columns and labels:
Format in all cases: in vivo
[1] = test system: rhythmic bladder contractions in urethane-anesthetized rats; assay: Rhythmic bladder contractions in urethane-anesthetized rats (Test Example 2); settings: mean ± standard error; for Reflex shutdown time: maximum observation period 30 minutes
Description: The urinary frequency and urinary incontinence suppressing activity of a GABA uptake inhibitor was measured as the ability to abolish the rhythmic bladder contractions in urethane-anesthetized rats as an index. An urethra was ligated, a constant volume of physiological saline warmed at 39°C was injected into the bladder to distend the detrusor muscle, and the regular rhythmic bladder contractions at a constant interval were observed. After the stable bladder contractions were confirmed, a compound was administered intravenously to investigate the activities. A time for completely suppressing the rhythmic bladder contractions after the drug administration (reflex shutdown time, a maximum observation period was 30 minutes) and a maximum contractile intravesical pressure at which the bladder contraction appeared again after the administration was measured. […] Table 2 Tiagabin hydrochloride was dissolved in distilled water, other drugs were dissolved in physiological saline, and the drugs were administered intravenously, respectively. Data are shown as mean ± standard error. *P<0.05, **P<0.01 (significance relative to the vehicle-administered control group, nonparametric Dunnett multiple comparison test, two-tailed test) ^#P<0.05 (significance to the values obtained before drug administration, paired t test, two-tailed test). A maximum contractile pressure was calculated from animals from which the bladder constriction was obtained in an observation period.

[2] = test system: unilaterally decerebrated rat under consciousness; assay: Micturition interval in unilaterally decerebrated rat under consciousness (Test Example 5); settings: for Micturition interval (min.) After administration / Micturition pressure (mmHg) After administration / Micturition interval (min.) Before administration / Micturition pressure (mmHg) Before administration: mean ± standard error; for Micturition interval (min.) Before administration / Micturition pressure (mmHg) Before administration: 30 minutes before drug
Description: The urinary frequency and urinary incontinence activity of a GABA uptake inhibitor was measured as the ability to increase the micturition interval in a unilaterally decerebrated rat under consciousness as an index. Animals were restricted in a Ballmann cage, and physiological saline was sustained-injected into the bladder at a constant rate (0.05 ml/min.) to induce repeated micturition. In a unilaterally decerebrated rat, micturition interval was decreased, and after the stable micturition interval was confirmed, a drug was administered intravenously or orally to investigate the activity (Table 5 and Table 6). The micturition interval and micturition pressure before and after drug administration were measured for 30 minutes, and the mean values were compared.
A drug was administered intravenously. Cystometogram was continuously measured for 30 minutes starting 15 minutes after drug administration, and it was compared with that for 30 minutes before drug administration. Data are shown as the means ± standard error. *P<0.05 **P<0.01 (significance to before administration, paired t test, two-tailed test) Table 6
A drug was administered orally. A bladder inner pressure curve was continuously measured for 30 minutes starting 60 minutes after drug administration, and it was compared with that for 30 minutes before drug administration. Data are shown as the mean ± standard error. *P<0.05 (significance relative to drug administration, paired t test, two-tailed test)

[3] = test system: bilateral common carotid artery-ligated rat under consciousness; assay: Micturition interval in bilateral common carotid artery-ligated rat under consciousness (Test Example 4); settings: for Micturition interval (relative to before ligation, %) After administration / Micturition pressure (relative to before ligation, %) After administration: 30 minutes after administration; for Micturition interval (relative to before ligation, %) After administration / Micturition pressure (relative to before ligation, %) After administration / Micturition interval (relative to before ligation, %) Before administration / Micturition pressure (relative to before ligation, %) Before administration: mean ± standard error; for Micturition interval (relative to before ligation, %) Before administration / Micturition pressure (relative to before ligation, %) Before administration: after ligation, before drug
Description: The urinary frequency and urinary incontinence suppressing activity of a GABA uptake inhibitor was measured as the ability to increase the micturition interval in bilateral common carotid artery-ligated rat under consciousness as an index. An animal was restricted in a Ballmann cage, and physiological saline was sustained-injected into the bladder at a constant rate (0.1 ml/min.) to induce repeated micturition. After the stable micturition interval was confirmed, common carotid arteries were ligated bilaterally and micturition interval was decreased. A compound was administered intravenously to animals with micturition interval decreased 20% or more following ligation, and the activity was investigated. The micturition interval and micturition pressure before and after drug administration were measured for 30 minutes, and the averages are expressed as the ratio to the value before bilateral common carotid artery-ligation (Table 4). […]
Tiagabin hydrochloride was dissolved in distilled water and administered intravenously. Crystometograms for 30 minutes before and after drug administration were continuously measured and compared. Data are shown as a ratio to micturition interval and micturition pressure before bilateral common carotid artery-ligation (mean ± standard error). *P<0.05, **P<0.01 (significance relative to before drug administration, paired t test, two-tailed test)

[4] = test system: bladder capacity in urethane-anesthetized rats; assay: Bladder capacity (cystometry) in urethane-anesthetized rats (Test Example 3); settings: mean ± standard error
Description: The urinary frequency and urinary incontinence suppressing activity of a GABA uptake inhibitor was shown by the ability to increase bladder capacity in urethane-anesthetized rats. After a bladder was made empty by drawing out the urine, physiological saline warmed at 39°C was injected into the bladder at a constant rate (0.05 ml/min.) to induce micturition. These procedures were repeated to confirm stable bladder capacity (volume of physiological saline injected until start of micturition) and, thereafter, compounds were administered intravenously to investigate the activities. A change in bladder capacity and micturition pressure after the administration was measured. […] Table 3 Tiagabin hydrochloride was dissolved in distilled water, other drugs were dissolved in physiological saline and the drugs were administered intravenously, respectively. Data are shown as the mean ± standard error. After drug administration, animals showing an overflow urinary incontinence-like cystometrogram (urine leakage without the bladder constriction) were excluded from calculation of micturition pressure. *P<0.05, **P<0.01 (significance to the values obtained before drug administration, paired t test, two-tailed test)

[5] = 0.3 mg/kg intravenously, 30 minutes starting 15 minutes after administration
[6] = 1 mg/kg intravenously, 30 minutes starting 15 minutes after administration
[7] = 3 mg/kg intravenously, 30 minutes starting 15 minutes after administration
[8] = baseline of the 0.3 mg/kg i.v. group
[9] = baseline of the 1 mg/kg i.v. group
[10] = baseline of the 3 mg/kg i.v. group
[11] = baseline of the 0.1 mg/kg i.v. group

## O=C(O)[C@@H]1CCCN(CCC=C(c2ccccc2)c2ccccc2)C1 [SKF89976A hydrochloride, (R)-1-(4,4-diphenyl-3-butenyl)-3-piperidinecarboxylic acid]
[1]; 3 mg/kg intravenously
  Change in maximum contractile intravesical pressure (Relative to before administration, %): -7.1±3.1%
  Reflex shutdown time: 5.0 ± 1.0 min
[1]; 10 mg/kg intravenously
  Change in maximum contractile intravesical pressure (Relative to before administration, %): -12.1±11.5%
  Reflex shutdown time: 15.7±3.3* min.
[1]; 30 mg/kg intravenously
  Change in maximum contractile intravesical pressure (Relative to before administration, %): -8.4±10.6%
  Reflex shutdown time: 25.1±4.6** min.

## Cc1ccsc1C(=CCCN1CCC[C@@H](C(=O)O)C1)c1sccc1C [Tiagabin hydrochloride, (R)-1-[4,4-bis(3-methyl-2-thienyl)-3-butenyl]-3-piperidinecarboxylic acid]
[2]; [5]
  Micturition interval (min.) After administration: 6.8 ± 0.9 min
  Micturition pressure (mmHg) After administration: 15.1±2.6 mmHg
[2]; [6]
  Micturition interval (min.) After administration: 6.5±1.0* min.
  Micturition pressure (mmHg) After administration: 14.5±1.5 mmHg
[2]; [7]
  Micturition interval (min.) After administration: 7.3±0.5** min.
  Micturition pressure (mmHg) After administration: 16.5±1.6 mmHg
[2]; 3 mg/kg orally, 30 minutes starting 60 minutes after administration
  Micturition interval (min.) After administration: 5.6 ± 0.7 min
[2]; 10 mg/kg orally, 30 minutes starting 60 minutes after administration
  Micturition interval (min.) After administration: 6.1±0.8* min.
[2]; [8]
  Micturition interval (min.) Before administration: 6.6 ± 1.5 min
  Micturition pressure (mmHg) Before administration: 13.9±2.3 mmHg
[2]; [9]
  Micturition interval (min.) Before administration: 5.2 ± 0.7 min
  Micturition pressure (mmHg) Before administration: 14.4±1.4 mmHg
[2]; [10]
  Micturition interval (min.) Before administration: 5.1 ± 0.5 min
  Micturition pressure (mmHg) Before administration: 16.1±1.4 mmHg
[2]; baseline of the 3 mg/kg oral group
  Micturition interval (min.) Before administration: 4.9 ± 0.8 min
[2]; baseline of the 10 mg/kg oral group
  Micturition interval (min.) Before administration: 4.4 ± 0.5 min
[2]; both intravenous and oral administrations, summary of Table 5 and Table 6
  micturition interval (result in words): increased micturition interval
[1]; 0.3 mg/kg intravenously
  Change in maximum contractile intravesical pressure (Relative to before administration, %): -12.6±5.8%
  Reflex shutdown time: 4.7 ± 1.6 min
[1]; 1 mg/kg intravenously
  Change in maximum contractile intravesical pressure (Relative to before administration, %): 4.5±17.3%
  Reflex shutdown time: 11.6 ± 3.8 min
[1]; 3 mg/kg intravenously
  Change in maximum contractile intravesical pressure (Relative to before administration, %): -19.4±11.8%
  Reflex shutdown time: 18.0±3.5* min.
[1]; 10 mg/kg intravenously
  Change in maximum contractile intravesical pressure (Relative to before administration, %): -31.6±10.5%
  Reflex shutdown time: 24.6±3.1** min.
[3]; 0.1 mg/kg intravenously
  Micturition interval (relative to before ligation, %) After administration: 78.8±10.0%
  Micturition pressure (relative to before ligation, %) After administration: 100.7±2.3%
[3]; 0.3 mg/kg intravenously
  Micturition interval (relative to before ligation, %) After administration: 92.1±12.8* %
  Micturition pressure (relative to before ligation, %) After administration: 86.3±9.2%
[3]; 1 mg/kg intravenously
  Micturition interval (relative to before ligation, %) After administration: 100.0±6.5** %
  Micturition pressure (relative to before ligation, %) After administration: 105.0±8.4%
[3]; 3 mg/kg intravenously
  Micturition interval (relative to before ligation, %) After administration: 75.5±15.0* %
  Micturition pressure (relative to before ligation, %) After administration: 106.2 ± 5.3%
[3]; [11]
  Micturition interval (relative to before ligation, %) Before administration: 58.5±3.1%
  Micturition pressure (relative to before ligation, %) Before administration: 103.9±1.1%
[3]; [8]
  Micturition interval (relative to before ligation, %) Before administration: 62.5±4.9%
  Micturition pressure (relative to before ligation, %) Before administration: 91.3±10.6%
[3]; [9]
  Micturition interval (relative to before ligation, %) Before administration: 63.2±3.3%
  Micturition pressure (relative to before ligation, %) Before administration: 111.5±8.3%
[3]; [10]
  Micturition interval (relative to before ligation, %) Before administration: 46.5±11.6%
  Micturition pressure (relative to before ligation, %) Before administration: 105.2±10.8%
[3]; intravenously, interval decreased by bilateral common carotid artery ligation, summary of Table 4
  micturition interval (result in words): showed an increasing effect on micturition interval
[4]; 1 mg/kg intravenously
  Change in bladder capacity (Relative to before administration, %): 42.7±35.6%
  Change in micturition pressure (Relative to before administration, %): 15.2±14.6%
[4]; 3 mg/kg intravenously
  Change in bladder capacity (Relative to before administration, %): 236.8±81.2* %
  Change in micturition pressure (Relative to before administration, %): 29.5±15.6%
[4]; 10 mg/kg intravenously
  Change in bladder capacity (Relative to before administration, %): 276.4±29.4** %
  Change in micturition pressure (Relative to before administration, %): 2.5±10.3%
